For test [1], the target named is human dopamine D2 (Long form) receptor (Homo sapiens, UniProt P14416). As to the kind of experiment: [3H]spiperone receptor binding assay, D2 (Long form) (CHO K1 membranes). An excerpt:
(§1) A cell line expressing human dopamine D2 (Long form) receptors was purchased from Oregon Health Sciences University, Portland, Ore. The D2 receptor cDNA was subcloned into an expression vector, pRc/CMV. The plasmids were transfected by electroporation into CHO K1 cells. A single stable transfectant, resistant to the antibiotic G418, was isolated and selected for use in the binding studies. For D4 binding, CHO K1 cells stably transfected to express the human recombinant dopamine D4.2 receptor subtype, as described by Shih, et al., "The expression and functional characterization of human dopamine D4.2 receptor in CHO K1 cells," Soc. Neurosci., 1995;21(Part 1):621.
(§2) CHO K1 cells expressing either human D2 and D4.2 receptors were grown in 162 cm^2 culture flasks in F12 medium (Gibco Laboratories, Grand Island, N.Y.) supplemented with 10% fetal bovine serum (FBS, Hyclone, Logan, UT) in an atmosphere of 5% Co2 /95% air at 37° C. Cells were grown until confluent, after which growth medium was removed and replaced with 0.02% ethylene diamine tetracetate (EDTA) in a phosphate-buffered saline solution (Sigma Chemical Co; St. Louis, Mo.) and scraped from the flasks. The cells were centrifuged at about 1000×g for 10 minutes at […] and then resuspended in TEM buffer (25 mM Tris-HCL, pH 7.4, 5 mM EDTA, and 6 mM MgCl2) for D2 or the D4.2 buffer (50 mM Tris-HCl, pH 7.4, 5 mM EDTA, 1.5 mM CaCl2, 5 mM KCl, and 120 mM NaCl) and homogenized. The membranes were pelleted by centrifugation at 20,000×g at […] for 20 minutes. Then the pellets were resuspended in an appropriate buffer at 1 mL/flask and stored at -70° C. until used in the receptor binding assay.
After 60 minutes incubation at 25° C., the incubations were terminated by rapid filtration through Whatmann GF/B glass fibre filters (soaked for 1 hour in 0.5% polyethylenimine) on a -cell harvester, with three washes of 1 mL ice-cold buffer. Individual filter disks containing the bound ligand were placed in counting vials with 4 mL of scintillation fluid (Ready Gel, Beckman Instrument Inc, Fullerton, Calif.) and then counted in a Beckman LS-6800 liquid scintillation counter at an efficiency of 45%. Nonspecific binding was defined in presence of 1 mM of haloperidol.
(§3) Saturation and competition binding data were analyzed using an iterative nonlinear least-square curve-fitting Ligand program. […] Experimental compounds were made up as stock solutions in dimethyl sulfoxide (DMSO). […] Each observation was carried out in triplicate. To allow these calculations, Kd values were measured for the interaction of various ligands with the receptor. […]

The target in test [2] is T1, human recombinant dopamine D4.2 receptor (Homo sapiens, UniProt P21917, DEL265-296).
T1 construct: expressed in transfected cells
T1 sequence (P21917 with tags, fused parts or gaps DEL265-296): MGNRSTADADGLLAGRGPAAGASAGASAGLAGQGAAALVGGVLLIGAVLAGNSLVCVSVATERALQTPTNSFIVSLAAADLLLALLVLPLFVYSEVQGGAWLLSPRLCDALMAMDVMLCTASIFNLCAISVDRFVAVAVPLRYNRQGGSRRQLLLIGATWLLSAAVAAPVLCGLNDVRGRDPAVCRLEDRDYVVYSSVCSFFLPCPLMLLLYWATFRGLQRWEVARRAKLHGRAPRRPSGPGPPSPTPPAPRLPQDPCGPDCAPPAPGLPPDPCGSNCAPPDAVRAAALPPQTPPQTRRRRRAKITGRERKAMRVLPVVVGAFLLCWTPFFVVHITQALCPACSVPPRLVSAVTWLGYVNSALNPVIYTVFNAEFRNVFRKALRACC
As to the kind of experiment: [3H]spiperone receptor binding assay, D4.2 (CHO K1 membranes). Conditions: [3H]spiperone 0.2 nM, human D4.2, CHO K1 membranes, 60 minutes at 25° C.
From the text: as §1, with “Soc.” for “Soc. Neurosci., 1995;21(Part 1):621.”
as §2, with “Cells” for “CHO K1 cells expressing either human D2 and D4.2 receptors were grown in 162 cm^2 culture flasks in F12 medium (Gibco Laboratories, Grand Island, N.Y.) supplemented with 10% fetal bovine serum (FBS, Hyclone, Logan, UT) in an atmosphere of 5% Co2 /95% air at 37° C. Cells”
After 60 minutes incubation at 25° C., the incubations were terminated by rapid filtration through Whatmann GF/B glass fibre filters (soaked for 1 hour in 0.5% polyethylenimine) on a -cell harvester, with three washes of 1 mL ice-cold buffer. […] Nonspecific binding was defined in presence of 1 mM of haloperidol.
as §3

The mark [3] stands for this setting: [3H]spiperone 0.2 nM, human D2 (Long form), CHO K1 membranes, 60 minutes at 25° C., read-out: D2 Ki.

Counter-ions that a name gives are not always drawn. Like-named read-outs stand apart in the source and are kept apart here.

human dopamine D2 (Long form) receptor, sequence (P14416 whole entry): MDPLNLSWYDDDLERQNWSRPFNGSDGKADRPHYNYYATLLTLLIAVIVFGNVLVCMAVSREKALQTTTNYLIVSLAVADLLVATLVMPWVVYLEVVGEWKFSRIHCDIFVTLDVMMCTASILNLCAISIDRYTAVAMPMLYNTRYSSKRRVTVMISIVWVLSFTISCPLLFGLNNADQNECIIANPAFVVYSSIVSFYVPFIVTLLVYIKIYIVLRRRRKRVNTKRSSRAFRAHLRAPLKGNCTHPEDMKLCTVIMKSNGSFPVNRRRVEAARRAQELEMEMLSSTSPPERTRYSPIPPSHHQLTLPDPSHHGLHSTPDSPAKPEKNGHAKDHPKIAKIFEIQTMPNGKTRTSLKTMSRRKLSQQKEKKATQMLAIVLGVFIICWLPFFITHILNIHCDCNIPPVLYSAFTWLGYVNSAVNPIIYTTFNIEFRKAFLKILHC

As to `Cc1ccc(N2CCN(Cc3ccc4ccc(=O)oc4c3)CC2)cc1Cl` [Example 1, 7-[4-(3-Chloro-4-methyl-phenyl)-piperazin-1-ylmethyl]-chromen-2-one], the Ki in test [1] is more than 5.88 µM; in test [2] (D4 Ki) it was 0.0069 µM.
Turning to `O=c1ccc2ccc(CN3CCN(c4ccc(CO)c(Cl)c4)CC3)cc2o1` [Example 2, 7-[4-(3-Chloro-4-hydroxymethyl-phenyl)-piperazin-1-ylmethyl]-chromen-2-one], the figures for the Ki in test [1] (setting [3]) and in test [2] (read-out: D4 Ki) were 10.6 µM and 0.011 µM, respectively.
As for `Cc1ccc(N2CCN(Cc3ccc4ccc(=O)oc4c3)CC2)cc1C` [Example 3, 7-[4-(3,4-Dimethyl-phenyl)-piperazin-1-ylmethyl]-chromen-2-one], the figures for the Ki in test [1] (setting [3]) and in test [2] (D4 Ki) were 0.433 µM and 0.0139 µM, respectively.
For `Cc1ccccc1N1CCN(Cc2ccc3ccc(=O)oc3c2)CC1` [Example 4, 7-(4-o-Tolyl-piperazin-1-ylmethyl)-chromen-2-one], in that order: 1.94 µM and 0.0163 µM.
Turning to `O=c1ccc2ccc(CN3CCN(c4ccccc4Cl)CC3)cc2o1` [Example 5, 7-[4-(2-Chloro-phenyl)-piperazin-1-ylmethyl]-chromen-2-one], the Ki in test [1] (setting [3]) turned out to be 0.635 µM; in test [2] (read-out: D4 Ki), 0.0168 µM.
Turning to `O=c1ccc2ccc(CN3CCC(c4ccccc4)CC3)cc2o1` [Example 7, 7-(4-Phenyl-piperidin-1-ylmethyl)-chromen-2-one], the Ki in test [2] (D4 Ki) turned out to be 0.018 µM.
As to `Cc1cccc(N2CCN(Cc3ccc4ccc(=O)oc4c3)CC2)c1C` [Example 8, 7-[4-(2,3-Dimethyl-phenyl)-piperazin-1-ylmethyl]-chromen-2-one], the Ki in test [1] (setting [3]) was 0.688 µM; in test [2] (read-out: D4 Ki), 0.019 µM.
The like results for `O=c1ccc2ccc(CN3CCN(c4cccc(Cl)c4)CC3)cc2o1` [Example 9, 7-[4-(3-Chloro-phenyl)-piperazin-1-ylmethyl]-chromen-2-one] were, in that order, more than 10 µM and 0.023 µM.
The like results for `O=c1ccc2ccc(CN3CCN(c4cccc(C(F)(F)F)c4)CC3)cc2o1` [Example 10, 7-[4-(3-Trifluoromethyl-phenyl)-piperazin-1-ylmethyl]-chromen-2-one] were, in that order, 5.88 µM and 0.024 µM.
For `O=Cc1ccc(N2CCN(Cc3ccc4ccc(=O)oc4c3)CC2)cc1Cl` [Example 11, 2-Chloro-4-[4-(2-oxo-2H-chromen-7-ylmethyl)-piperazin-1-yl]-benzaldehyde], in that order: more than 5.88 µM and 0.0246 µM.
With `Cc1ccc(C2CCN(Cc3ccc4ccc(=O)oc4c3)CC2)cc1` [Example 12, 7-(4-p-Tolyl-piperidin-1-ylmethyl)-chromen-2-one], in test [2] (read-out: D4 Ki), the inhibition constant Ki was 0.0257 µM.
Take `O=c1ccc2ccc(CN3CCN(c4ccccc4)CC3)cc2o1` [Example 13, 7-(4-Phenyl-piperazin-1-ylmethyl)-chromen-2-one]: the Ki in test [1] (setting [3]) was 5.34 µM; in test [2] (D4 Ki) it was 0.026 µM.
On to `O=c1ccc2ccc(CN3CCN(c4ccc(CO)c(F)c4)CC3)cc2o1` [Example 16, 7-[4-(3-Fluoro-4-hydroxymethyl-phenyl)-piperazin-1-ylmethyl]-chromen-2-one], for which, in test [2] (read-out: D4 Ki), the Ki turned out to be 0.0299 µM.
On the same count and under the same terms, for `O=c1ccc2ccc(CN3CCN(c4ccc(CO)c(Br)c4)CC3)cc2o1` [Example 19, 7-[4-(3-Bromo-4-hydroxymethyl-phenyl)-piperazin-1-ylmethyl]-chromen-2-one] the value was 0.0395 µM; for `O=c1ccc2ccc(CN3CCN(c4ccc5ccccc5c4)CC3)cc2o1` [Example 23, 7-(4-Naphthalen-2-yl-piperazin-1-ylmethyl)-chromen-2-one], 0.0497 µM.
As to `O=c1ccc2ccc(CN3CCN(c4ccc(F)cc4)CC3)cc2o1` [Example 24, 7-[4-(4-Fluoro-phenyl)-piperazin-1-ylmethyl]-chromen-2-one], the Ki in test [2] (D4 Ki) came to 0.059 µM.
Take `COc1ccc(N2CCN(Cc3ccc4ccc(=O)oc4c3)CC2)cc1` [Example 26, 7-[4-(4-Methoxy-phenyl)-piperazin-1-ylmethyl]-chromen-2-one]: the Ki in test [2] (D4 Ki) was 0.075 µM.
`CCCSc1cccc(N2CCN(Cc3ccc4ccc(=O)oc4c3)CC2)c1` [Example 27, 7-[4-(3-Propylsulfanyl-phenyl)-piperazin-1-ylmethyl]-chromen-2-one]: the Ki in test [2] (read-out: D4 Ki) came out at 0.091 µM.
`O=c1ccc2ccc(CN3CCN(c4ccc(Cl)cc4)CC3)cc2o1` [Example 28, 7-[4-(4-Chloro-phenyl)-piperazin-1-ylmethyl]-chromen-2-one]: in test [2] (read-out: D4 Ki), the Ki was found to be 0.093 µM.
Consider `Cc1c(Cl)cccc1N1CCN(Cc2ccc3ccc(=O)oc3c2)CC1` [Example 29, 7-[4-(3-Chloro-2-methyl-phenyl)-piperazin-1-ylmethyl]-chromen-2-one], for which the Ki in test [2] (read-out: D4 Ki) was determined as 0.128 µM.
Regarding `O=c1ccc2ccc(CN3CCN(Cc4ccccc4)CC3)cc2o1` [Example 30, 7-(4-Benzyl-piperazin-1-ylmethyl)-chromen-2-one], in test [2] (D4 Ki), the Ki was determined as 2.66 µM.
Regarding `COc1cc(N2CCN(Cc3ccc4ccc(=O)oc4c3)CC2)cc(OC)c1OC` [Example 31, 7-[4-(3,4,5-Trimethoxy-phenyl)-piperazin-1-ylmethyl]-chromen-2-one], the Ki in test [2] (read-out: D4 Ki) is more than 2 µM.
On the same count and under the same terms, in the case of `O=c1ccc2ccc(CN3CCN(c4ncccn4)CC3)cc2o1` [Example 32, 2H-1-Benzopyran-2-one, 7-[[4-(2-pyrimidinyl)-1-piperazinyl]methyl]-, dihydrochloride] it was 5 µM.
Take `O=c1ccc2cc(CN3CCN(c4cccc(Cl)c4Cl)CC3)ccc2o1` [Example 45]: the Ki in test [2] (read-out: D4 Ki) is 0.041 µM.
For the compound `O=c1ccc2cc(CN3CCN(c4ccc(F)cc4)CC3)ccc2o1` [Example 46, 6-[4-(4-Fluoro-phenyl)-piperazin-1-ylmethyl]-chromen-2-one], the Ki in test [2] (read-out: D4 Ki) amounted to 0.041 µM.
Take `Cc1cccc(N2CCN(Cc3ccc4oc(=O)ccc4c3)CC2)c1` [Example 49, 6-(4-m-Tolyl-piperazin-1-ylmethyl)-chromen-2-one]: the Ki in test [2] (D4 Ki) amounted to 0.074 µM.
For `O=c1ccc2cc(CN3CCN(c4ncccn4)CC3)ccc2o1` [Example 50, 2H-1-Benzopyran-2-one, 6-[[4-(2-pyrimidinyl)-1-piperazinyl]methyl]-], the Ki in test [2] (read-out: D4 Ki) stood at 0.163 µM.
With `COc1cc(N2CCN(Cc3ccc4oc(=O)ccc4c3)CC2)cc(OC)c1OC` [Example 51, 6-[4-(3,4,5-Trimethoxy-phenyl)-piperazin-1-ylmethyl]-chromen-2-one], the inhibition constant Ki in test [2] (read-out: D4 Ki) was 0.316 µM.

Broadly, the Ki is the dissociation constant of the complex between target and ligand, obtained from inhibition or displacement.
